Reference: paper PMC4207403, “Docking Studies and Biological Activity of Fosinopril Analogs” (International Journal of Medicinal Chemistry, 2014)

Tests used:
[1] = target: T1, angiotensin-I converting enzyme (ACE) (Rattus norvegicus, UniProt P47820); assay: In vitro angiotensin-I converting enzyme inhibitory activity, spectrophotometric assay with rat lung extract; assay type: biochemical; conditions: for inhibition at 0.0002 µM: 0.2 nM; for inhibition at 0.0004 µM: 0.4 nM; for inhibition at 0.0006 µM: 0.6 nM; for inhibition at 0.0008 µM: 0.8 nM; for inhibition at 0.001 µM: 1 nM; for IC50: ACE inhibition, rat lung extract
T1 construct: The reaction was started by the addition of 40 μL rat lung extract; from tissue; host or cells: rat lung extract
T1 sequence (P47820 36-1313): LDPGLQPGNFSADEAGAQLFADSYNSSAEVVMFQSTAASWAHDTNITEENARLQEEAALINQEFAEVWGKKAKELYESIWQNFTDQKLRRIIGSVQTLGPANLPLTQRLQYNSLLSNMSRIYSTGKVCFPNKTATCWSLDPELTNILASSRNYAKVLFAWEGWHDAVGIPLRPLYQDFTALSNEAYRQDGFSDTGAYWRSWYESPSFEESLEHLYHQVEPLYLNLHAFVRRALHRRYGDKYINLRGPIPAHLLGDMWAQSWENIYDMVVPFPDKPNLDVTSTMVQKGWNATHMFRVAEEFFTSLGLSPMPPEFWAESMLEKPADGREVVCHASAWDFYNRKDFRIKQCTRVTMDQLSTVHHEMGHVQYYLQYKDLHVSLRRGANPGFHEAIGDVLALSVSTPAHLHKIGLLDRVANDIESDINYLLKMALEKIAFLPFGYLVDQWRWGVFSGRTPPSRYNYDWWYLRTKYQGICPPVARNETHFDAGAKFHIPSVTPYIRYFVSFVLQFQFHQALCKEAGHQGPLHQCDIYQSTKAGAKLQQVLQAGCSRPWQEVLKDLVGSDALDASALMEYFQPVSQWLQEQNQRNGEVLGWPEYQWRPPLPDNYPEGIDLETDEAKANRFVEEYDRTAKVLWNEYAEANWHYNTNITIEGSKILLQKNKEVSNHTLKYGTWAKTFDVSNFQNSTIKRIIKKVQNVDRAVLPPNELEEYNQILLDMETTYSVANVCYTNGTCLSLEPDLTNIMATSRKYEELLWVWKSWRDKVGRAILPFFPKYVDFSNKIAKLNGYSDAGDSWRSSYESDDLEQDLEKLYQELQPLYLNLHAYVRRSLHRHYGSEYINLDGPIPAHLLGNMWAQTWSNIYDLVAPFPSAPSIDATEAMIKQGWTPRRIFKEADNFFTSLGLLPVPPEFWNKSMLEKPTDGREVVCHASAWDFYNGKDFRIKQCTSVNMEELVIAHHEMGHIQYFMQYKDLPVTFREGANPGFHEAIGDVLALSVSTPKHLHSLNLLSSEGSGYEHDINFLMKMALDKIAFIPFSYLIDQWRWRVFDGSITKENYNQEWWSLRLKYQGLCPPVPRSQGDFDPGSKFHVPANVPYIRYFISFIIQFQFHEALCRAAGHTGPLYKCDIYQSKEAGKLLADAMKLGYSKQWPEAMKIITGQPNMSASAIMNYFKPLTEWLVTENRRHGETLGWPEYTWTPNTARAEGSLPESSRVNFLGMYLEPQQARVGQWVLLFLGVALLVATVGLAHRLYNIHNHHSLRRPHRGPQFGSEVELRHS
Description: This method is based on the cleavage of the substrate hippuryl-glycyl-glycine by ACE and subsequent reaction with trinitrobenzenesulfonic acid to form 2,4,6-trinitrophenyl-glycyl-glycine. The method relies on spectrophotometric determination of hippuric acid. It involves a colorimetric reaction of hippuric acid with benzene sulfonyl chloride.
The assay system consisted of 200 μL of substrate solution, water, and drug solution in a volume of 0.25 mL. The reaction was started by the addition of 40 μL rat lung extract. After 30 minutes of incubation at 37°C, the reaction was stopped by adding 2 mL of stop solution (1.195 g HEPES and 0.0465 g of EDTA were dissolved in 40 mL distilled water. The pH was adjusted to 9.0 with 1 mol/lit sodium hydroxide and diluted to 50 mL with distilled water). Then 0.5 mL distilled water and 1.0 mL colour reagent were added, mixed vigorously, left for 5 min, and centrifuged at 3000–4000 rpm for 10 minutes at room temperature to remove any precipitate. The corresponding enzyme inhibitors blanks were assayed in the same manner except for adding the stop solution before the lung extract. The absorbance of the yellow product of the reaction between liberated hippurate and cyanuric chloride was measured spectrophotometrically at 405 nm against distilled water as blank.Controls without drug were run simultaneously in all cases. “One inhibitory unit is the amount of inhibitor that suppressed the ACE activity by one unit.”

ACE = conditions: background statement; cited from earlier work
[2] = background statement; cited from earlier work
[3] = read-out: Percent inhibition of ACE

SMILES | inhibition at 10 pM ([1]; 0.01 nM, read-out: Percent inhibition of ACE) | inhibition at 20 pM ([1]; 0.02 nM, read-out: Percent inhibition of ACE) | inhibition at 0.0002 µM [1, 3] | inhibition at 0.0004 µM [1, 3] | inhibition at 0.0006 µM [1, 3] | inhibition at 0.0008 µM [1, 3] | inhibition at 0.001 µM [1, 3] | IC50 [1] | ACE inhibition activity, in words ([1]; compared with other analogs and Fosinopril) | inhibition at 0.0001 µM ([1]; 0.1 nM, read-out: Percent inhibition of ACE) | Potency relative to other ACE inhibitors (ACE) | Bioavailability [2]
O=C(O)C1Cc2ccccc2CN1C(=O)CP(=O)(O)CCCCc1ccccc1 (stereo not shown) [Analog A2] | 44.7 ± 3.85% | 53.2 ± 5.73% | 75.1 ± 4.66% | 77.8 ± 3.21% | 81.7 ± 6.09% | 84 ± 5.11% | 84.5 ± 4.52% | 0.017 ± 0.009 nM | highest ACE inhibition activity |  |  | 
CCC(=O)O[C@@H](O[P@](=O)(CCCCc1ccccc1)CC(=O)N1C[C@H](C2CCCCC2)C[C@H]1C(=O)O)C(C)C [Fosinopril] |  |  | 63 ± 6.01% | 68.7 ± 3.99% | 73 ± 4.76% | 88.2 ± 5.2% | 89.1 ± 3.82% | 0.143 ± 0.012 nM |  | 44.1 ± 4.35% |  | 
O=C(O)[C@@H]1C[C@@H](C2CCCCC2)CN1C(=O)CP(=O)(O)CCCCc1ccccc1 [Fosinoprilat] |  |  |  |  |  |  |  |  |  |  | more potent than captopril but less potent than enalaprilat | poor bioavailability
C[C@H](N[C@@H](CCc1ccccc1)C(=O)O)C(=O)N1CCC[C@H]1C(=O)O [enalaprilat] |  |  |  |  |  |  |  |  |  |  |  | poor bioavailability
